Values joined by “and” are separate entries in the source; they are usually repeats but may differ in a detail not shown here. Equal values may be shown once. Active and inactive are the calls of the source. No rule for the calls is given here.
Target: glucose-6-phosphate dehydrogenase-6-phosphogluconolactonase (Plasmodium falciparum 3D7)
Test: concentration-dependent PfGluPho enzyme inhibition – biochemical, fluorescence intensity, dose response (AID 504765)
Details: Recombinant PfG6PD enzyme, fluorescence intensity (NADPH)

In the case of `O=[N+]([O-])c1c(NCCCO)cc(Sc2nc3ccccc3s2)c2nonc12`, the IC50 is reported as 12.5 µM.
Work on `CCOc1ccccc1NC(=O)CCCc1nc2ccccc2c(=O)[nH]1` yielded an IC50 of 7.4 µM.
With `COc1cccc(-c2c(C(=O)N/N=C/c3ccc(C)o3)nnn2-c2nonc2N)c1` the IC50 was 13.2 µM.
With `Nc1c(C(=O)Nc2ccc(F)cc2)sc(=S)n1-c1ccccc1F` the IC50 was 8.31 µM.
In the case of `Nn1c(CSc2nc3ccccc3o2)nnc1CSc1nc2ccccc2o1`, the IC50 is reported as 11.5 µM.
`Cc1cnc(C=NNC(N)=S)c2cccc(N)c12` showed an IC50 of 1.72 µM.
`Cn1c(-c2sccc2OCc2cccc(C(F)(F)F)c2)n[nH]c1=S` was tested, and the IC50 was “inactive”.
`COc1cc(N2C(=O)C=CC2=O)ccc1N1C(=O)C=CC1=O` showed an IC50 of 4.43 µM.
`CCN1CCN(C(=S)c2ccc(O)cc2)CC1` was tested, and the IC50 was “inactive”.
With `CCC1(C)CC(C(N)=S)CCO1` (stereo unspecified) the IC50 was “inactive”.
`Cc1ccc(-c2nn(C)c(=O)c3ccccc23)cc1CNC(=O)/C=C/c1ccccc1` was tested, and the IC50 was 4.14 µM.
For `Cc1ccc2nc(SCC(=O)N/N=C/c3ccco3)cc(C)c2c1`, the IC50 was 10.3 µM.
`CN(C)C=Nc1ccc2nc3c(cc2c1)[nH]c1ccccc13` was tested, and the IC50 was 9.98 µM.
`CN1CCc2cccc3c2[C@@H]1Cc1ccc(O)c(O)c1-3` gave an IC50 of 8.36 µM.
Work on `O=C(N/N=C/c1cccc([N+](=O)[O-])c1)C(=O)N1CCCCCC1` yielded an IC50 of 5.45 µM.
With `COc1cc(/C=C2\SC(c3ccc(C)cc3)=NC2=O)ccc1O` the IC50 was 8.7 µM.
For `Cc1nc2ccc(Nc3nc4cc(S(=O)(=O)N5CCOCC5)ccc4o3)cc2s1`, the IC50 was “inactive”.
For `C=CCOc1ccc(CNc2ccc3[nH]c(=O)[nH]c3c2)cc1OC`, the IC50 was 6.61 µM.
With `CC1COCC(C)N1C1=C(Cl)C(=O)c2ccccc2C1=O` (stereo unspecified) the IC50 was 7.19 µM.
Work on `CCOC(=O)c1cnc2ccc(C)cc2c1Sc1ccccc1C(=O)OC` yielded an IC50 of 11.1 µM.
`C[C@]12CC[C@@H]3c4ccc(O)c(O)c4CC[C@H]3[C@@H]1CC[C@@H]2O` was tested, and the IC50 was 4.02 µM.
Molecule `COc1ccc(Cl)cc1NC(=O)c1cccc([N+](=O)[O-])c1O` has an IC50 of 8.87 µM.
`Cc1ccc(-c2csc(NC(=O)c3ccccc3F)c2C(=O)O)cc1` was tested, and the IC50 was 8.06 µM.
`Cc1nn(-c2ccccc2)c(Cl)c1/C=N/Nc1nc2ccccc2n1C` gave an IC50 of 13.3 µM.
Molecule `O=C(O)CSc1cc(NS(=O)(=O)c2ccc(Cl)cc2)c2ccccc2c1O` has an IC50 of 4.17 µM.
Molecule `Cc1ccc(CNc2ccc(O)cc2)cc1` has an IC50 of 8.8 µM.
Work on `N#Cc1ccc2sn(-c3ccccc3)c(=O)c2c1` yielded an IC50 of 3.47 µM.
For `CCNc1ccccc1CP(=O)(c1ccccc1)c1ccccc1O` (stereo unspecified), the IC50 was 6.81 µM.
For `c1cc2c(cc1NC1CCCCCC1)OCO2`, the IC50 was 19.2 µM.
`Cc1cccc(NC2=C(NC(=O)c3ccccc3)C(=O)c3ccccc3C2=O)c1` gave an IC50 of 10.6 µM.
For `COc1cc(SSc2cc(OC)cc([N+](=O)[O-])c2N)c(N)c([N+](=O)[O-])c1`, the IC50 was 4.2 µM.
With `CCN(CC)C(=S)SSC(=S)N(CC)CC` the IC50 was 10.1 µM.
`COc1ccc(-c2cn3cc(C)ccc3n2)cc1Br` showed an IC50 of 9.91 µM.
Work on `COc1cc(CNc2ccc(N3CCCC3)cc2)cc(Cl)c1OC` yielded an IC50 of 3.64 µM.
In the case of `COC(=O)c1ccccc1NC1=C/C(=N\S(=O)(=O)c2cccs2)c2ccccc2C1=O`, the IC50 is reported as 1.26 µM and 6.47 µM.
`Cc1ccc(/C=C/C(=O)NC2CCCCCCC2)o1` showed an IC50 of 9.66 µM.
`O=C(O)c1cccc(N2C(=O)C=CC2=O)c1` showed an IC50 of 15.5 µM.
For `COc1ccc(C(=O)c2c(C(F)(F)F)oc3c2C(=O)c2ccccc2C3=O)cc1`, the IC50 was “inactive”.
With `O=c1[nH]nc(CNc2ccc(O)cc2)c2ccccc12` the IC50 was “inactive”.
With `COc1ccc(NS(=O)(=O)c2ccc(N3CCCC3)c(NC(=S)Nc3cccc(C)c3C)c2)cc1` the IC50 was “inactive”.
Work on `COc1ccc(OC)c2c1C(=O)C(Cl)=C(Cl)C2=O` yielded an IC50 of 4.64 µM.
For `COc1cccc(CNc2ccc3[nH]c(=O)[nH]c3c2)c1OCc1ccccc1Cl`, the IC50 was “inactive”.
With `CNS(=O)(=O)c1ccc(-c2ccc(C=C3C(=O)NC(=O)NC3=O)o2)cc1` the IC50 was 8.75 µM.
With `O=C(Nc1sc2c(c1C(=O)O)CCC2)c1ccc(F)cc1` the IC50 was 7.8 µM.
In the case of `O=C(Nc1ccccc1C(=O)N/N=C/c1ccco1)c1ccccc1Cl`, the IC50 is reported as 10.6 µM.
`COc1cc(N=c2ssnc2Cl)cc(OC)c1` was tested, and the IC50 was 13.2 µM.
For `CCC1(CC)Cc2ccccc2C(N)=C1C#N`, the IC50 was “inactive”.
Molecule `O=c1c2ccccc2sn1-c1ccc(S(=O)(=O)N2CCCCC2)cc1` has an IC50 of 7.2 µM.
`O=C(CCSCCC(=O)NN=Cc1ccccc1)NN=Cc1ccccc1` gave an IC50 of 7.76 µM.
`CC(C)Nc1ccc(Nc2ccccc2)cc1` gave an IC50 of 12.1 µM.
In the case of `COc1ccc(C(=O)ON=C2C=C(C)C(=O)C(C)=C2)cc1`, the IC50 is reported as “inactive”.
`Cc1ccc(/C=C/C(=O)NCc2ccc(S(N)(=O)=O)cc2)o1` was tested, and the IC50 was 5.78 µM.
For `O=C1C=CC(=O)N1c1ccc(-c2nc3ccccc3o2)cc1`, the IC50 was 12.6 µM.
With `CC1(C)Nc2ccc(O)cc2-c2c1ssc2=S` the IC50 was “inactive”.
Work on `CCOc1ccc2ccccc2c1/C=N/NC(=O)c1ccncc1` yielded an IC50 of 3.49 µM.
With `CCc1nnc(NC(=O)c2ccc(Cl)nc2)s1` the IC50 was 15.5 µM.
In the case of `Cn1cc(S(=O)(=O)CC(=O)N2CCc3ccccc32)c2ccccc21`, the IC50 is reported as “inactive”.
`O=C1NC(=O)N(c2ccccc2)C(=O)/C1=C/c1ccc([N+](=O)[O-])s1` gave an IC50 of 10 µM.
Work on `O=S(=O)(Nc1cc(Sc2ncn[nH]2)c(O)c2ccccc12)c1ccccc1` yielded an IC50 of 0.741 µM.
With `Cc1cc(C)c2c(=O)n(CC(=O)Nc3ccc(Br)c(C)c3)sc2n1` the IC50 was 2.62 µM.
`Cc1cc(C)c(S(=O)(=O)Nc2cc(SCC(=O)O)c(O)c3ccccc23)cc1C` was tested, and the IC50 was 1.19 µM.
With `CC(=NNC(=S)N1CCN(c2ccccn2)CC1)c1nccs1` the IC50 was 5.6 µM.
Molecule `O=C1NC(=O)C(=Cc2ccc(-c3ccccc3[N+](=O)[O-])o2)C(=O)N1` has an IC50 of 10.9 µM.
Work on `O=c1ccsn1Cc1ccccc1` yielded an IC50 of 2.29 µM.
With `COc1cccc(C2(c3cccc(OC)c3)CC2C(=O)Nc2ccc(F)cc2)c1` (stereo unspecified) the IC50 was 10.3 µM.
`Cc1ccc(NC(=O)c2cc(N3C(=O)C=CC3=O)ccc2N2CCOCC2)cc1` showed an IC50 of 15.7 µM.
`O=c1c2ccccc2sn1-c1cccc(Cl)c1` gave an IC50 of 4.18 µM.
`Cc1ccc(NC(=O)c2cc(C)n(-c3ccccc3)c2C)cc1` gave an IC50 of 14.1 µM.
`COc1cc(N=c2ssnc2Cl)cc(OC)c1OC` was tested, and the IC50 was 15.5 µM.
With `COc1ccc(CN(C)S(=O)(=O)c2nnc(NC(=O)c3cccc(C)c3)s2)cc1OC` the IC50 was 6.89 µM.
For `Cc1nc2c(o1)C(=O)c1ccccc1C2=Nc1ccccc1`, the IC50 was 7 µM.
`O=c1c2ccc(F)cc2sn1-c1ccccc1` showed an IC50 of 1.98 µM.
With `CC(SCC(=O)Nc1ccccc1)c1nc2ccccc2c(=O)[nH]1` (stereo unspecified) the IC50 was 5.29 µM.
With `O=C1/C(=C\c2ccc([N+](=O)[O-])cc2)CS(=O)(=O)C/C1=C/c1ccc([N+](=O)[O-])cc1` the IC50 was 2.95 µM.
`CCCCC1C(=O)N(c2ccccc2)N(c2ccc(O)cc2)C1=O` (stereo unspecified) gave an IC50 of 12.5 µM.
`Cc1ccc(/C=C/C(=O)N2CCN(S(=O)(=O)c3ccc(C)c(C)c3)CC2)o1` was tested, and the IC50 was “inactive”.
`CN(C)c1nc(=NCc2cccs2)ss1` showed an IC50 of 11.9 µM.
Work on `Brc1cc2[nH]cnc2c2ccccc12` yielded an IC50 of 17.6 µM.
`Cc1ccc(S(=O)(=O)NNc2ccccc2)cc1` was tested, and the IC50 was “inactive”.
`Nc1cc(N)c(OCC(F)(F)F)cc1OCC(F)(F)F` showed an IC50 of 1.61 µM.
`Cc1cc(O)c(C(C)C)cc1N=Cc1ccccc1[N+](=O)[O-]` was tested, and the IC50 was 3.44 µM.
Work on `Cc1ccc(-c2c(C(=O)N/N=C/c3cccs3)nnn2-c2nonc2N)cc1` yielded an IC50 of 3.91 µM.
Work on `Cc1c(Cl)c([N+](=O)[O-])nn1Cc1ccc(C(=O)N/N=C\c2cccc(Br)c2)o1` yielded an IC50 of 9.37 µM.
`CCN(CC)c1ccc(C(=C2C=CC(=[N+](CC)CC)C=C2)c2ccccc2)cc1` was tested, and the IC50 was 11.7 µM.
`CCNc1nc(NC(C)C)nc(NS(=O)(=O)c2ccc(Cl)cc2)n1` gave an IC50 of 6.54 µM.
In the case of `O=c1c2ccccc2sn1-c1ccccc1F`, the IC50 is reported as 6.48 µM.
`CCOc1ccc(NC(=O)Cn2sc3nc(C)cc(C)c3c2=O)cc1` gave an IC50 of 1.85 µM.
`CC1=CC(C)(C)Nc2ccc(OC(=O)CN3C(=O)c4cccc5cccc(c45)C3=O)cc21` was tested, and the IC50 was 6.28 µM.
With `CN(C)c1ccc(/C=C/c2ccc3c4ccccc4ccc3[n+]2-c2ccccc2)cc1` the IC50 was “inactive”.
In the case of `CCOC(=O)c1c2ccc(OCC(=O)NN)cc2n2ccccc12`, the IC50 is reported as 15.3 µM.
`O=C(CSc1nc2ccccc2[nH]1)NC1CCCc2ccccc21` (stereo unspecified) showed an IC50 of 13.4 µM.
`Oc1ccc(/C=N/N=C(c2ccccc2)c2ccccc2)c(O)c1O` gave an IC50 of 13.6 µM.
`COc1ccc2c(c1)c(=Cc1ccc(N(C)C)cc1)c1cc(-c3ccccc3)[n+](C)n12` showed an IC50 of 17.2 µM.
For `COc1cc(-c2cc(=O)c3c(O)c(OC)c(OC)c(O)c3o2)ccc1O`, the IC50 was 8.95 µM.
`CC(C)(C)c1ccc(C(=O)Nc2sc3c(c2C(=O)O)CCC3)cc1` gave an IC50 of 12.7 µM.
`Cc1ccc(C(=O)/C=C/C(=O)c2ccc(C)cc2)cc1` was tested, and the IC50 was 7.28 µM.
Molecule `COc1cc(NCCCn2ccc(NC(=O)OCc3ccccc3)nc2=O)cc(OC)c1OC` has an IC50 of 17.6 µM.
For `Cc1cc(=O)[nH]c(N/N=C/c2c(C)nn(-c3ccccc3)c2Cl)n1`, the IC50 was 8.43 µM.
`O=C(CCC(=O)OCC(=O)c1ccc([N+](=O)[O-])cc1)Nc1ccccc1Cl` showed an IC50 of 6.61 µM.
For `COc1ccccc1NS(=O)(=O)c1cc(NC(=O)c2ccc(Cl)nc2)ccc1N1CCCC1`, the IC50 was “inactive”.
`C[C@H](NC(N)=O)C(=O)Nc1ccc(N2CCOCC2)c(S(=O)(=O)Nc2ccc(Cl)cc2)c1` was tested, and the IC50 was “inactive”.
In the case of `N#CC1=C(N)Oc2c(O)cc3ccccc3c2C1c1ccsc1` (stereo unspecified), the IC50 is reported as 6.71 µM.
For `Cc1ccc(-c2c(C(=O)N/N=C/c3ccsc3)nnn2-c2nonc2N)cc1`, the IC50 was “inactive”.
Work on `Cc1cccc(C(=O)Nc2sc3c(c2C(=O)O)CCCC3)c1` yielded an IC50 of 8.55 µM.
Molecule `COc1cc(Sc2ccc(C)cc2)c(OC)cc1N` has an IC50 of 7.04 µM.
With `CCN1CCN(C(=S)c2ccc(Cl)c(Cl)c2)CC1` the IC50 was “inactive”.
`Cc1ccc(C(=O)NCC(=O)NCC(=O)OCC(=O)c2ccc([N+](=O)[O-])cc2)cc1` showed an IC50 of 5.92 µM.
For `CCN(CC)c1ccc(NC(=O)c2ccccc2Br)cc1S(=O)(=O)Nc1ccccc1OC`, the IC50 was “inactive”.
With `COc1ccc(CCn2c(NN=C3CCCCC3)nc3c2c(=O)[nH]c(=O)n3C)cc1` the IC50 was 1.65 µM.
Work on `O=c1c2ccccc2[se]n1-c1ccccc1` yielded an IC50 of 9.66 µM.
For `O=C(CN1CCN(c2ccc(O)cc2)CC1)Nc1cc(S(=O)(=O)N2CCOCC2)ccc1Cl`, the IC50 was “inactive”.
In the case of `CCCN1CCc2cccc3c2[C@H]1Cc1ccc(O)c(O)c1-3`, the IC50 is reported as 15 µM.
`O=C(CCC(=O)Nc1ccccc1Cl)N/N=C/c1ccccc1` was tested, and the IC50 was 3.17 µM.
Work on `CC1(C)CC2(CC(c3ccccc3F)c3ccc(O)c(O)c3O2)NC(=S)N1` (stereo unspecified) yielded an IC50 of 12.8 µM.
`O=C(CCl)NCCN1C(=O)S/C(=C\c2cccnc2)C1=O` was tested, and the IC50 was 9.89 µM.
`C=CCN1C=C2C(=O)C(C)(OC(=O)CCC(=O)OC)C(=O)C(Br)=C2C=C1c1ccc(OC)cc1` (stereo unspecified) showed an IC50 of 2.79 µM.

From PubChem BioAssay AID504765 (Sanford-Burnham Center for Chemical Genomics, 2011)
